Data taken from ChEMBL document CHEMBL4052660, “The tobacco cembranoid (1S,2E,4S,7E,11E)-2,7,11-cembratriene-4,6-diol as a novel angiogenesis inhibitory lead for the control of breast malignancies” (Bioorg Med Chem, 2017).
Calls of active or inactive are those of the source. No cut-off for these calls is given here.

Columns and labels:
[1] = system: Mus musculus; test: Antiangiogenic activity in matrigel injected Swiss albino mouse assessed as reduction in hemoglobin content in matrigel plug at 2.5 mg/kg, ip every other day for 20 days by matrigel assay; assay type: functional; set-up: scale not given: the % may be the effect or the level left
[2] = target: Vascular endothelial growth factor receptor 2 (Homo sapiens) (UniProt P35968); test: Inhibition of VEGFR2 phosphorylation in human MDA-MB-231 cells at 20 uM by Western blot analysis; assay type: cell-based
[3] = target: Vascular endothelial growth factor receptor 2 (Homo sapiens) (UniProt P35968); test: Inhibition of VEGFR2 in human BT474 cells assessed as downregulation of phosphorylated paxillin levels at 50 uM by Western blot analysis; assay type: cell-based
[4] = target: Vascular endothelial growth factor receptor 2 (Homo sapiens) (UniProt P35968); test: Inhibition of VEGFR2 in human MDA-MB-231 cells assessed as reduction in Akt phosphorylation at 20 to 50 uM by Western blot analysis; assay type: cell-based
[5] = target: Vascular endothelial growth factor receptor 2 (Homo sapiens) (UniProt P35968); test: Inhibition of VEGFR2 in human BT474 cells assessed as downregulation of phosphorylated FAK levels at 50 uM by Western blot analysis; assay type: cell-based
[6] = target: Vascular endothelial growth factor receptor 2 (Homo sapiens) (UniProt P35968); test: Inhibition of VEGFR2 in human MDA-MB-231 cells assessed as downregulation of phosphorylated paxillin levels at 20 uM by Western blot analysis; assay type: cell-based
[7] = system: Serum; test: Drug metabolism in athymic nude mouse serum assessed as dihydroxylated metabolite formation at 40 mg/kg, ip after 2 hrs by ES-MS analysis; assay type: ADME, organism-based; conditions: in vivo
[8] = target: Vascular endothelial growth factor receptor 2 (Homo sapiens) (UniProt P35968); test: Inhibition of VEGFR2 in human BT474 cells assessed as downregulation of phosphorylated paxillin levels at 20 uM by Western blot analysis; assay type: cell-based
[9] = target: Vascular endothelial growth factor receptor 2 (Homo sapiens) (UniProt P35968); test: Inhibition of VEGFR2 in human BT474 cells assessed as reduction in Akt phosphorylation at 20 to 50 uM by Western blot analysis; assay type: cell-based
[10] = system: Serum; test: Drug uptake in athymic nude mouse serum at 40 mg/kg, ip after 2 hrs by ES-MS analysis; assay type: ADME, organism-based; conditions: in vivo
[11] = system: Serum; test: Drug metabolism in athymic nude mouse serum assessed as monohydroxylated metabolite formation at 40 mg/kg, ip after 2 hrs by ES-MS analysis; assay type: ADME, organism-based; conditions: in vivo
[12] = target: Vascular endothelial growth factor receptor 2 (Homo sapiens) (UniProt P35968); test: Inhibition of VEGFR2 in human MDA-MB-231 cells assessed as downregulation of phosphorylated paxillin levels at 50 uM by Western blot analysis; assay type: cell-based
[13] = target: Vascular endothelial growth factor receptor 2 (Homo sapiens) (UniProt P35968); test: Inhibition of VEGFR2 in human BT474 cells assessed as reduction in PI3K phosphorylation at 20 to 50 uM by Western blot analysis; assay type: cell-based
[14] = target: Vascular endothelial growth factor receptor 2 (Homo sapiens) (UniProt P35968); test: Inhibition of VEGFR2 in human BT474 cells assessed as downregulation of phosphorylated FAK levels at 20 uM by Western blot analysis; assay type: cell-based
[15] = target: Vascular endothelial growth factor receptor 2 (Homo sapiens) (UniProt P35968); test: Inhibition of VEGFR2 in human MDA-MB-231 cells assessed as downregulation of phosphorylated FAK levels at 20 uM by Western blot analysis; assay type: cell-based
[16] = target: Vascular endothelial growth factor receptor 2 (Homo sapiens) (UniProt P35968); test: Inhibition of VEGFR2 phosphorylation in human MDA-MB-231 cells at 50 uM by Western blot analysis; assay type: cell-based
[17] = target: Vascular endothelial growth factor receptor 2 (Homo sapiens) (UniProt P35968); test: Inhibition of VEGFR2 phosphorylation in human BT474 cells at 50 uM by Western blot analysis; assay type: cell-based
[18] = target: Vascular endothelial growth factor receptor 2 (Homo sapiens) (UniProt P35968); test: Inhibition of VEGFR2 phosphorylation in human BT474 cells at 20 uM by Western blot analysis; assay type: cell-based
[19] = target: Vascular endothelial growth factor receptor 2 (Homo sapiens) (UniProt P35968); test: Inhibition of VEGFR2 in human MDA-MB-231 cells assessed as downregulation of phosphorylated FAK levels at 50 uM by Western blot analysis; assay type: cell-based
[20] = target: Vascular endothelial growth factor receptor 2 (Homo sapiens) (UniProt P35968); test: Inhibition of VEGFR2 in human MDA-MB-231 cells assessed as reduction in PI3K phosphorylation at 20 to 50 uM by Western blot analysis; assay type: cell-based

Sequence of Vascular endothelial growth factor receptor 2 (Homo sapiens) (P35968 whole entry): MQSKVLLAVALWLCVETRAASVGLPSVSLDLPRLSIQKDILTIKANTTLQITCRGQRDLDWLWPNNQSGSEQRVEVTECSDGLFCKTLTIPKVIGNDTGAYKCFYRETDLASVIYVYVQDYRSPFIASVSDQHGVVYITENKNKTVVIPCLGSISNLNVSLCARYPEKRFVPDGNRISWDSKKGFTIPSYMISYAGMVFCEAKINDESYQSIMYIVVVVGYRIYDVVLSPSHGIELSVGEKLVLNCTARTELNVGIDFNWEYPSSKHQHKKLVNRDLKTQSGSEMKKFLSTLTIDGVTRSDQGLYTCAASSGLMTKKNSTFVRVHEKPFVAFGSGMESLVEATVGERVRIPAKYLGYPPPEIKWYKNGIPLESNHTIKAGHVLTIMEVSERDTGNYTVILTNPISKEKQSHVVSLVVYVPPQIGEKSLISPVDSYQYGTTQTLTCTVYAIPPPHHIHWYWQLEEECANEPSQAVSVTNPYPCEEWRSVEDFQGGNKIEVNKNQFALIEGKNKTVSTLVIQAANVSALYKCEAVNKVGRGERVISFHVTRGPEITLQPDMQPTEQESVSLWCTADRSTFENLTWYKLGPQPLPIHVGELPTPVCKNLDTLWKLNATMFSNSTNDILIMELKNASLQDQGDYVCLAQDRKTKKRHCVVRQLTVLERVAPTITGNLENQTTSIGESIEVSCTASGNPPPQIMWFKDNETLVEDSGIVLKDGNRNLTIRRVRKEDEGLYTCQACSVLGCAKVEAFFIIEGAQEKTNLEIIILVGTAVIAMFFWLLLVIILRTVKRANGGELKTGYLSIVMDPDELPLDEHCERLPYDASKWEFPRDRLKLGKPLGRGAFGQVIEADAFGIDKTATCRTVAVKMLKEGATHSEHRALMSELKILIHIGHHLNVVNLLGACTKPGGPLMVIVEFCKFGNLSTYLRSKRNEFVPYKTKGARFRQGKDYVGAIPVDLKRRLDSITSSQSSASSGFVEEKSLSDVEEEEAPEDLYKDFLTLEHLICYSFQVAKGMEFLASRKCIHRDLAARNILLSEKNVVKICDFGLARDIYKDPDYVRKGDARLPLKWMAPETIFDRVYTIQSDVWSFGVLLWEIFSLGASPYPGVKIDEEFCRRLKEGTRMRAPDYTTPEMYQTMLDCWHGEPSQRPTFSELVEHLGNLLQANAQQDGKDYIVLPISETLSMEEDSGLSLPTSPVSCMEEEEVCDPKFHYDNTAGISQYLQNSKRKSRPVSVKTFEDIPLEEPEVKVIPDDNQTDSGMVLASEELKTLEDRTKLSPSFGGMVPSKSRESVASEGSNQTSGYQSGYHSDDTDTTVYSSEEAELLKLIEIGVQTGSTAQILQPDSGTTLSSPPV

Question: Which Activity [1] does the source give for CCN(CC)CCNC(=O)c1c(C)[nH]c(/C=C2\C(=O)Nc3ccc(F)cc32)c1C [SUNITINIB] here?
Answer: 80%

Question: What does the source list for C/C1=C\[C@H](O)C[C@](C)(O)/C=C/[C@H](C(C)C)CC/C(C)=C/CC1?
Answer: inhibition [2]: 60.6%; inhibition [3]: 82.1%; inhibition [4]: inactive; inhibition [5]: 74.8%; inhibition [6]: 58.7%; Drug metabolism [7]: Metabolite_Detected; inhibition [8]: 70.9%; inhibition [9]: inactive; Drug uptake [10]: Active; Drug metabolism [11]: Metabolite_Detected; inhibition [12]: 96.1%; inhibition [13]: inactive; inhibition [14]: 48.9%; inhibition [15]: 26%; inhibition [16]: 65.3%; inhibition [17]: 58.6%; inhibition [18]: 43.1%; inhibition [19]: 41.3%; inhibition [20]: inactive
